Results on 1 compound are retold here after ChEMBL document CHEMBL5365463, “Identification of a Self-Assembling Small-Molecule Cancer Vaccine Adjuvant with an Improved Toxicity Profile” (J Med Chem, 2023).

Active and inactive are the calls of the source. The rule behind the calls is not given here.

The subject of data set [1] is BMDC. Nature of the data set: Cytotoxicity against mouse BMDC cells at 80 uM incubated for 24 hrs by Celltiter-Glo luminescence assay. Format: toxicity, cell-based.
The subject of data set [2] is RAW264.7. The experiment in a line: Induction of apoptosis in mouse RAW264.7 cells assessed as live cells at 4 uM by flow cytometry analysis (reference value: 75.4 %). Format: functional. A general note: Flow cytometry measures light scatter and fluorescence of single cells or particles in a stream.
The subject of data set [3] is RAW264.7. The experiment in a line: Induction of apoptosis in mouse RAW264.7 cells assessed as apoptotic cells at 10 uM by flow cytometry analysis (reference value: 3.26 %). It is filed as functional.
Data set [4] relates to RAW264.7. The experiment in a line: Induction of apoptosis in mouse RAW264.7 cells assessed as apoptotic cells at 16 uM by flow cytometry analysis (reference value: 3.26 %). It is filed as functional.
For data set [5], the system named is RAW264.7. The experiment in a line: Induction of apoptosis in mouse RAW264.7 cells assessed as necrotic cells at 12 uM by flow cytometry analysis (reference value: 20.6 %). It is filed as functional.
Data set [6] can be described thus: Toxicity in BALB/c mouse assessed as reduction in platelet count measured after 16 hrs. As to conditions: dose 100-1000 µg.
Data set [7] is described as follows: Toxicity in BALB/c mouse assessed as increase in Mx2 expression at 100 to 1000 ug measured after 16 hrs in presence of hemagglutinin. As to conditions: in vivo, dose 100-1000 µg.
The subject of data set [8] is BMDC. The experiment in a line: Induction of immune response in TLR7 knockout mouse BMDC cells assessed as increase in TNF-alpha production at 10 to 100 uM incubated for 24 hrs by ELISA method. Format: functional, cell-based. As to conditions: dose 10-100 µM. For orientation: An ELISA detects its analyte on a solid surface through an enzyme-linked reagent.
The subject of data set [9] is BMDC. Nature of the data set: Induction of immune response in TLR7 knockout mouse BMDC cells assessed as increase in MIP-1alpha production at 10 to 100 uM incubated for 24 hrs by ELISA method. It is filed as functional, cell-based. The following applies: dose 10-100 µM.
Data set [10] in a line: Upregulation of CD40 expression in mouse RAW264.7 cells assessed as fold increase in fluorescence intensity at 20 uM measured after 24 hrs by flow cytometry analysis. It is filed as functional.
Data set [11] is described as follows: Upregulation of CD86 expression in mouse BMDC cells assessed as fold increase at 5 to 50 uM measured after 24 hrs in presence of OVAp by flow cytometry analysis. Format: functional. As to conditions: dose 5-50 µM.
Data set [12] relates to B16-OVA melanoma cell. The experiment in a line: Antitumor activity against mouse B16-OVA melanoma cell xenografted in C57BL/6 mouse assessed as at 500 ug administered 5 times for every 2 days from day 9 to 17 in presence of OVAp. Format: functional, cell-based. As to conditions: dose 500.0 µg, time 9.0 day.
A short description of data set [13]: Antitumor activity against mouse B16-OVA melanoma cell xenografted in C57BL/6 mouse assessed as fold increase in IFN-gamma+TNF-alpha+ at 500 ug, sc in presence of OVAp by flow cytometry analysis. It is filed as functional. The following applies: dose 500 µg.
Data set [14] can be described thus: Antitumor activity against mouse B16-OVA melanoma cell xenografted in C57BL/6 mouse assessed as fold increase in CD8+T cells at 500 ug, sc in presence of OVAp by flow cytometry analysis. It is filed as functional. The following applies: dose 500 µg.
A short description of data set [15]: Toxicity in C57BL/6 mouse assessed as effect on ALT level in serum at 500 ug measured after 1 day after immunization. As to conditions: 24 h, dose 500 µg.
Data set [16] in a line: Toxicity in C57BL/6 mouse assessed as effect on creatinine level in serum at 500 ug measured after 1 day after immunization. The following applies: 24 h, dose 500 µg.
Data set [17] can be described thus: Toxicity in C57BL/6 mouse assessed as effect on kidney at 500 ug, sc by H and E staining based analysis. The following applies: in vivo, dose 500 µg. It is filed as organism-based.
The nature of data set [18]: Toxicity in C57BL/6 mouse assessed as effect on lung at 500 ug, sc by H and E staining based analysis. Format: organism-based. The following applies: in vivo, dose 500 µg.
The nature of data set [19]: Toxicity in C57BL/6 mouse assessed as effect on heart at 500 ug, sc by H and E staining based analysis. It is filed as organism-based. As to conditions: in vivo, dose 500 µg.

`C[C@H](CCC(=O)NCCCCCCCNC(=O)CC[C@@H](C)[C@H]1CC[C@H]2[C@@H]3CC[C@@H]4C[C@H](O)CC[C@]4(C)[C@H]3C[C@H](O)[C@]12C)[C@H]1CC[C@H]2[C@@H]3CC[C@@H]4C[C@H](O)CC[C@]4(C)[C@H]3C[C@H](O)[C@]12C`: the Activity entry in [1] is “Non-Toxic”; in [2], 77.8%; in data set [3], 2.23%; in data set [4], 0.63%; in data set [5], 30.5%; in data set [6], “Dose-Dependent Effect”. Further, the Activity result in data set [7], in data set [15], in data set [16], in data set [17], in [18] and in data set [19] was “Non-Toxic” in each case. Moreover, the outcome in [8] and in data set [9] was inactive. Also, the “fold change (FC)” value in data set [10] is 1.3; in data set [11], 1.2; in data set [13], 2.8; in data set [14], 6.3. Besides, in data set [12], the result was Active.
